Data as given in the kinase profiling compilation of Christmann-Franck et al. (2016).

Columns and labels:
Assay in all cases: radiometric filter-binding kinase assay
[1] = tested on: AKT2 (human), P31751 [S474D]
CAMKK2 (human) = CAMKK2 (human) (UniProt Q96RR4)
CSK (human) = CSK (human) (UniProt P41240)
CSNK1D (human) = CSNK1D (human) (UniProt P48730)
DYRK3 (human) = DYRK3 (human) (UniProt O43781)
EPHA2 (human) = EPHA2 (human) (UniProt P29317)
FGFR1 (human) = FGFR1 (human) (UniProt P11362)
FLT1 (human) = FLT1 (human) (UniProt P17948)
GSK3B (human) = GSK3B (human) (UniProt P49841)
Chain of GSK3B (human) (P49841 whole entry, looked up): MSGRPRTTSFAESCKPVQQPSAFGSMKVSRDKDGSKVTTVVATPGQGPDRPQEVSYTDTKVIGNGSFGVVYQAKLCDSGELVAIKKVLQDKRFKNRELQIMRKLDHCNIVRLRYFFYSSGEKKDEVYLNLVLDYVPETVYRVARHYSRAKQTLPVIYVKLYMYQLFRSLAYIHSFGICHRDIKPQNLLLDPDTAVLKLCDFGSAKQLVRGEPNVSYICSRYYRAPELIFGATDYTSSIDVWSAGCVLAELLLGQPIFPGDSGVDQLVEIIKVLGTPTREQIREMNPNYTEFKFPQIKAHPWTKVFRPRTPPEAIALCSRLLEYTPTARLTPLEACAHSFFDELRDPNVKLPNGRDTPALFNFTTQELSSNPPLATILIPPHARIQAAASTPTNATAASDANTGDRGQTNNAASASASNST

IGF1R (human) = IGF1R (human) (UniProt P08069)
INSR (human) = INSR (human) (UniProt P06213)
LCK (mouse) = settings: accession and sequence are those of the human protein
MAPK11 (human) = MAPK11 (human) (UniProt Q15759)
MAPK14 (human) = MAPK14 (human) (UniProt Q16539)
MAPK15 (human) = MAPK15 (human) (UniProt Q8TD08)
MAPKAPK5 (human) = MAPKAPK5 (human) (UniProt Q8IW41)
Chain of MAPKAPK5 (human) (Q8IW41 whole entry, looked up): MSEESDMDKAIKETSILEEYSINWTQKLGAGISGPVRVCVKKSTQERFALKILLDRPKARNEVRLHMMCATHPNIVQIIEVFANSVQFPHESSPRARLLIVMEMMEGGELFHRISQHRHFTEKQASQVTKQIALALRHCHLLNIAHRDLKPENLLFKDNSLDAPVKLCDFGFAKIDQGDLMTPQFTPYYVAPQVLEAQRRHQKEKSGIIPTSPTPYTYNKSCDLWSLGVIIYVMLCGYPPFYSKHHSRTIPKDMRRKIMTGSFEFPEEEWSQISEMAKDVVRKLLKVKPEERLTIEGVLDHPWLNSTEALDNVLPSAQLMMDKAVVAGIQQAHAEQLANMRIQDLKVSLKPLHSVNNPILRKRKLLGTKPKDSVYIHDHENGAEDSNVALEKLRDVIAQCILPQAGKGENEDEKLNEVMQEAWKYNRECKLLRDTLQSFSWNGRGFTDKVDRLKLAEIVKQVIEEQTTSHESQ

MELK (human) = MELK (human) (UniProt Q14680)
PRKCZ (human) = PRKCZ (human) (UniProt Q05513)
ROCK2 (rat) = settings: accession and sequence are those of the human protein
RPS6KA3 KD1 KD2 (human) = RPS6KA3 KD1 KD2 (human) (UniProt P51812)
Chain of RPS6KA3 KD1 KD2 (human) (P51812 whole entry, looked up): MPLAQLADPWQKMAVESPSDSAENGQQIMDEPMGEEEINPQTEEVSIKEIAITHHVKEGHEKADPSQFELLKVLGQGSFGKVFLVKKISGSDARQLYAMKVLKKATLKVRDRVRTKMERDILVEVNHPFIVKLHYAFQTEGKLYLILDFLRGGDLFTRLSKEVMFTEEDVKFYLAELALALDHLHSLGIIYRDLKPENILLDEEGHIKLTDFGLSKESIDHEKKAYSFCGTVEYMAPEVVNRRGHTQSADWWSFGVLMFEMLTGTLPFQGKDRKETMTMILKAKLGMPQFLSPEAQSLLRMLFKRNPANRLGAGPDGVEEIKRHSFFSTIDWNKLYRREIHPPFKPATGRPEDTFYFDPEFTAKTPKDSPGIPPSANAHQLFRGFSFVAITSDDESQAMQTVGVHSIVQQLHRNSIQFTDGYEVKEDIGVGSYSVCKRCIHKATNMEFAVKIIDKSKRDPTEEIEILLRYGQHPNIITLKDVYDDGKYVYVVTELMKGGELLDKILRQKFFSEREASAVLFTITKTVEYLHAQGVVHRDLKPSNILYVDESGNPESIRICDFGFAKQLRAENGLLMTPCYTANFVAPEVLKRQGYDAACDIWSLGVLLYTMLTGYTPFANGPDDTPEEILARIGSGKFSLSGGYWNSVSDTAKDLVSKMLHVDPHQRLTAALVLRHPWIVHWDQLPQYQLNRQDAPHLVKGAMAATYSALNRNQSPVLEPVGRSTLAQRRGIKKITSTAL

SRC (human) = SRC (human) (UniProt P12931)
Chain of SRC (human) (P12931 whole entry, looked up): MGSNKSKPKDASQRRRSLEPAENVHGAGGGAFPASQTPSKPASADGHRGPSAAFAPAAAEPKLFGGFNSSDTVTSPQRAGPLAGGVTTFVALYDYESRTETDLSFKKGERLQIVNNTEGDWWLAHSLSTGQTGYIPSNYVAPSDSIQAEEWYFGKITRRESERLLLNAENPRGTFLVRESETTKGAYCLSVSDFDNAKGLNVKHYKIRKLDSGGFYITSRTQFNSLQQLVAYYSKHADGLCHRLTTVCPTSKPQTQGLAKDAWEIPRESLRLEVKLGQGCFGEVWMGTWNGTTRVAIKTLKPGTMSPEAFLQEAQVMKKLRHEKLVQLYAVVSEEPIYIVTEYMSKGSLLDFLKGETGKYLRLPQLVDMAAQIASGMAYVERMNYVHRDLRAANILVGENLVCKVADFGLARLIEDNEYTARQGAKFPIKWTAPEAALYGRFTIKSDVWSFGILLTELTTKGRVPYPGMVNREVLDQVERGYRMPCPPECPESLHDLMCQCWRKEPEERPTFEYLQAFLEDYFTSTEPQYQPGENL

Chain of FGFR1 (human) (P11362 whole entry, looked up): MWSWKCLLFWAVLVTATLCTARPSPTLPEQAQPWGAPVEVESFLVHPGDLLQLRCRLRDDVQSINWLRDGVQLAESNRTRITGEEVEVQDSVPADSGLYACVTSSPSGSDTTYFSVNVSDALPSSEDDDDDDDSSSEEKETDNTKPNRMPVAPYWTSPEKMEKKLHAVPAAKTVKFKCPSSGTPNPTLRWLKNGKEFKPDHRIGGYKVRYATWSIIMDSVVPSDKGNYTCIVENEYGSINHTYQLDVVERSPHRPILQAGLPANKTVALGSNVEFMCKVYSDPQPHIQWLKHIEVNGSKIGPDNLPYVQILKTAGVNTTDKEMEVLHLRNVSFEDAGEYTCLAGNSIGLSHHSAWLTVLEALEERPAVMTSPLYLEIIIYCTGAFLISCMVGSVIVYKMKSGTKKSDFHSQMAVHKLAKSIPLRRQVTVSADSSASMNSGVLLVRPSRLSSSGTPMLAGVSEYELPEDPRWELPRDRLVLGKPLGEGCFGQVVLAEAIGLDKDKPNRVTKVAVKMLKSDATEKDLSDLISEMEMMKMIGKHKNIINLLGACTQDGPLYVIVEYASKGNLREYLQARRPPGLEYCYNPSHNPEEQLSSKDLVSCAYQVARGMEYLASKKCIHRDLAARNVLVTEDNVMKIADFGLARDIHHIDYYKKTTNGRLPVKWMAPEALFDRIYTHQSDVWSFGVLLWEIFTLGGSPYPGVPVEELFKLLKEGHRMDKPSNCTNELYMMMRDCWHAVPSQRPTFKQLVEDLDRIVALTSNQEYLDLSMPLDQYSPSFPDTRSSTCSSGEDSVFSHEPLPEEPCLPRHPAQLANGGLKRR
Chain of CSNK1D (human) (P48730 whole entry, looked up): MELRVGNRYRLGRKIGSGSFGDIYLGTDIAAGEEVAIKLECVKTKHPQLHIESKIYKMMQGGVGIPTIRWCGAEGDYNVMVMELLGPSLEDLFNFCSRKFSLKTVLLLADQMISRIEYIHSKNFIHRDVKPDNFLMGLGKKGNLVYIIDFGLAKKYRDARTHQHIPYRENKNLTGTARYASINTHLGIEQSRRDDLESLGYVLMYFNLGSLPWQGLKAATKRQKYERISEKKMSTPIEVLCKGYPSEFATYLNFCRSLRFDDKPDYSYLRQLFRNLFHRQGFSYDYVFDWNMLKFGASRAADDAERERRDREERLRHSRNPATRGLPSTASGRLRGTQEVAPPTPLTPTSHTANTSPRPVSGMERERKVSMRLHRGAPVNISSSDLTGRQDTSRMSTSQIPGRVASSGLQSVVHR
Chain of CAMKK2 (human) (Q96RR4 whole entry, looked up): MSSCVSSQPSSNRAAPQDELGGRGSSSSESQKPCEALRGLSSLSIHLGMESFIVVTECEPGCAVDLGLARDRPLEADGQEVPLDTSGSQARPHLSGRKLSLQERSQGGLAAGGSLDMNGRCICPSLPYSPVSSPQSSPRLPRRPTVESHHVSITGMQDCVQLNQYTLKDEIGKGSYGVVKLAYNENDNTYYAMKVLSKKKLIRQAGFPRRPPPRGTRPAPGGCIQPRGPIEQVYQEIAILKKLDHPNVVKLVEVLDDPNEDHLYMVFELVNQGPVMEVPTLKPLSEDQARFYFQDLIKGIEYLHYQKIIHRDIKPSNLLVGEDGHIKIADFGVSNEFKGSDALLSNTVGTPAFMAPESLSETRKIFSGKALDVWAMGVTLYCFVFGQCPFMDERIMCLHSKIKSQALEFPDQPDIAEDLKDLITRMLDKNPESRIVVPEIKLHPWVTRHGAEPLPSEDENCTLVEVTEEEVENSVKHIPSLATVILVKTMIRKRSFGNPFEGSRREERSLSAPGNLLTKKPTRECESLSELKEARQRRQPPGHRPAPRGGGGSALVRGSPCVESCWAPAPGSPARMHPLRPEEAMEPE
Chain of EPHA2 (human) (P29317 whole entry, looked up): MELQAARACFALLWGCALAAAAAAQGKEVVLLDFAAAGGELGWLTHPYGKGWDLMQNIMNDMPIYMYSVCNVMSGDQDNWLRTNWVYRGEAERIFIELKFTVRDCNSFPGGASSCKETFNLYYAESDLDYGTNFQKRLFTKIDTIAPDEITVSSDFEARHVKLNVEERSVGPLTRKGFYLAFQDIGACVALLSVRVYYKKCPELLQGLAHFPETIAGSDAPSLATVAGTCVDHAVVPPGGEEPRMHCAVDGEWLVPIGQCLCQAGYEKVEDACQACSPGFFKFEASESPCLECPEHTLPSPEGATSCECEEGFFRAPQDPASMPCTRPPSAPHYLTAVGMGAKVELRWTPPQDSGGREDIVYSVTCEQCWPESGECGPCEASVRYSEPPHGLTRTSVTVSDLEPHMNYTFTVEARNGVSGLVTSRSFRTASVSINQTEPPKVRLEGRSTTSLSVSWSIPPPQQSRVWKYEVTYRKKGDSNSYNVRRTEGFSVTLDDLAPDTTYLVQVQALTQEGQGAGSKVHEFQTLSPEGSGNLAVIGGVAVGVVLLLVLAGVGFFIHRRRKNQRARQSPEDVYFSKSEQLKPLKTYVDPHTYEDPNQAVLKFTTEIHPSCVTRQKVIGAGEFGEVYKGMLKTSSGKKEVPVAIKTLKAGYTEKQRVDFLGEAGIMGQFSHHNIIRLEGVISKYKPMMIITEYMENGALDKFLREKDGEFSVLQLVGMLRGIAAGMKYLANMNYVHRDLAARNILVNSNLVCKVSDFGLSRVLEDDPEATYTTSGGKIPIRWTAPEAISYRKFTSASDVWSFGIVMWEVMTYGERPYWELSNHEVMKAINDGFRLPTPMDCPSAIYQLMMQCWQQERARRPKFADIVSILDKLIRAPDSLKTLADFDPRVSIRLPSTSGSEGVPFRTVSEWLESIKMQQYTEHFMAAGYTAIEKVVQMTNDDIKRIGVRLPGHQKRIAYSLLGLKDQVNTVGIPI

For Cc1cc(SCc2sc(-c3ccc(C(F)(F)F)cc3)nc2C)ccc1OCC(=O)O, the residual activity ([1]; compound 1.0 µM) was 103%, the residual activity ([1]; compound 10.0 µM) was 103% and the residual activity (CAMKK2 (human); compound 1.0 µM) was 86%. The residual activity (CAMKK2 (human); compound 10.0 µM) was 83%, the residual activity (CSK (human); compound 1.0 µM) was 98% and the residual activity (CSK (human); compound 10.0 µM) was 97%. For the same compound, the residual activity (CSNK1D (human); compound 1.0 µM) was 82%, the residual activity (CSNK1D (human); compound 10.0 µM) was 80% and the residual activity (DYRK3 (human); compound 1.0 µM) was 83%. The residual activity (DYRK3 (human); compound 10.0 µM) was 81%, the residual activity (EPHA2 (human); compound 1.0 µM) was 103% and the residual activity (EPHA2 (human); compound 10.0 µM) was 113%. The residual activity (FGFR1 (human); compound 1.0 µM) was 100%, the residual activity (FGFR1 (human); compound 10.0 µM) was 81% and the residual activity (FLT1 (human); compound 1.0 µM) was 84%. It also gave a residual activity (FLT1 (human); compound 10.0 µM) of 74%, a residual activity (GSK3B (human); compound 1.0 µM) of 87% and a residual activity (GSK3B (human); compound 10.0 µM) of 83%. The residual activity (IGF1R (human); compound 1.0 µM) was 87%, the residual activity (INSR (human); compound 1.0 µM) was 107% and the residual activity (INSR (human); compound 10.0 µM) was 103%. It also gave a residual activity (LCK (mouse); compound 1.0 µM) of 106%, a residual activity (LCK (mouse); compound 10.0 µM) of 98% and a residual activity (MAPK11 (human); compound 1.0 µM) of 91%. It also gave a residual activity (MAPK11 (human); compound 10.0 µM) of 94%, a residual activity (MAPK14 (human); compound 1.0 µM) of 82% and a residual activity (MAPK14 (human); compound 10.0 µM) of 98%. The residual activity (MAPK15 (human); compound 1.0 µM) was 103%, the residual activity (MAPK15 (human); compound 10.0 µM) was 109% and the residual activity (MAPKAPK5 (human); compound 10.0 µM) was 39%. For the same compound, the residual activity (MELK (human); compound 1.0 µM) was 79%, the residual activity (MELK (human); compound 10.0 µM) was 85% and the residual activity (PRKCZ (human); compound 1.0 µM) was 79%. The residual activity (PRKCZ (human); compound 10.0 µM) was 74%, the residual activity (ROCK2 (rat); compound 1.0 µM) was 99% and the residual activity (ROCK2 (rat); compound 10.0 µM) was 91%. It also gave a residual activity (RPS6KA3 KD1 KD2 (human); compound 1.0 µM) of 94%, a residual activity (SRC (human); compound 1.0 µM) of 87% and a residual activity (SRC (human); compound 10.0 µM) of 70%.

Work on O=C1NC(=S)N[C@@H]1Cc1c[nH]c2ccccc12 yielded a residual activity ([1]; compound 1.0 µM) of 83%, a residual activity ([1]; compound 10.0 µM) of 97% and a residual activity (CAMKK2 (human); compound 1.0 µM) of 79%. For the same compound, the residual activity (CAMKK2 (human); compound 10.0 µM) was 95%, the residual activity (CSK (human); compound 1.0 µM) was 101% and the residual activity (CSK (human); compound 10.0 µM) was 104%. For the same compound, the residual activity (CSNK1D (human); compound 1.0 µM) was 105%, the residual activity (CSNK1D (human); compound 10.0 µM) was 115% and the residual activity (DYRK3 (human); compound 1.0 µM) was 78%. The residual activity (DYRK3 (human); compound 10.0 µM) was 96%, the residual activity (EPHA2 (human); compound 1.0 µM) was 94% and the residual activity (EPHA2 (human); compound 10.0 µM) was 86%. It also gave a residual activity (FGFR1 (human); compound 1.0 µM) of 83%, a residual activity (FGFR1 (human); compound 10.0 µM) of 80% and a residual activity (FLT1 (human); compound 1.0 µM) of 89%. For the same compound, the residual activity (GSK3B (human); compound 1.0 µM) was 99%, the residual activity (GSK3B (human); compound 10.0 µM) was 92% and the residual activity (IGF1R (human); compound 1.0 µM) was 113%. For the same compound, the residual activity (IGF1R (human); compound 10.0 µM) was 100%, the residual activity (INSR (human); compound 1.0 µM) was 96% and the residual activity (INSR (human); compound 10.0 µM) was 103%. For the same compound, the residual activity (LCK (mouse); compound 1.0 µM) was 74%, the residual activity (LCK (mouse); compound 10.0 µM) was 95% and the residual activity (MAPK11 (human); compound 1.0 µM) was 94%. For the same compound, the residual activity (MAPK11 (human); compound 10.0 µM) was 95%, the residual activity (MAPK14 (human); compound 1.0 µM) was 76% and the residual activity (MAPK14 (human); compound 10.0 µM) was 82%. It also gave a residual activity (MAPK15 (human); compound 1.0 µM) of 104%, a residual activity (MAPK15 (human); compound 10.0 µM) of 94% and a residual activity (MAPKAPK5 (human); compound 1.0 µM) of 89%. The residual activity (MAPKAPK5 (human); compound 10.0 µM) was 100%, the residual activity (MELK (human); compound 1.0 µM) was 84% and the residual activity (MELK (human); compound 10.0 µM) was 100%. It also gave a residual activity (PRKCZ (human); compound 1.0 µM) of 77%, a residual activity (PRKCZ (human); compound 10.0 µM) of 83% and a residual activity (ROCK2 (rat); compound 1.0 µM) of 83%. It also gave a residual activity (ROCK2 (rat); compound 10.0 µM) of 96%, a residual activity (RPS6KA3 KD1 KD2 (human); compound 1.0 µM) of 78% and a residual activity (RPS6KA3 KD1 KD2 (human); compound 10.0 µM) of 100%. For the same compound, the residual activity (SRC (human); compound 1.0 µM) was 94% and the residual activity (SRC (human); compound 10.0 µM) was 99%.

For C[C@H]1CCCC(=O)CCC/C=C/c2cc(O)cc(O)c2C(=O)O1, the residual activity ([1]; compound 1.0 µM) was 97%, the residual activity ([1]; compound 10.0 µM) was 89% and the residual activity (CAMKK2 (human); compound 1.0 µM) was 90%. It also gave a residual activity (CAMKK2 (human); compound 10.0 µM) of 52%, a residual activity (CSK (human); compound 1.0 µM) of 80% and a residual activity (CSK (human); compound 10.0 µM) of 64%. For the same compound, the residual activity (CSNK1D (human); compound 1.0 µM) was 99%, the residual activity (CSNK1D (human); compound 10.0 µM) was 83% and the residual activity (DYRK3 (human); compound 1.0 µM) was 100%. The residual activity (DYRK3 (human); compound 10.0 µM) was 62%, the residual activity (EPHA2 (human); compound 1.0 µM) was 69% and the residual activity (EPHA2 (human); compound 10.0 µM) was 26%. It also gave a residual activity (FGFR1 (human); compound 1.0 µM) of 90%, a residual activity (FGFR1 (human); compound 10.0 µM) of 51% and a residual activity (FLT1 (human); compound 1.0 µM) of 95%. It also gave a residual activity (FLT1 (human); compound 10.0 µM) of 69%, a residual activity (GSK3B (human); compound 1.0 µM) of 47% and a residual activity (GSK3B (human); compound 10.0 µM) of 11%. It also gave a residual activity (IGF1R (human); compound 1.0 µM) of 93%, a residual activity (IGF1R (human); compound 10.0 µM) of 64% and a residual activity (INSR (human); compound 1.0 µM) of 107%. The residual activity (INSR (human); compound 10.0 µM) was 102%, the residual activity (LCK (mouse); compound 1.0 µM) was 69% and the residual activity (LCK (mouse); compound 10.0 µM) was 26%. For the same compound, the residual activity (MAPK11 (human); compound 1.0 µM) was 108%, the residual activity (MAPK11 (human); compound 10.0 µM) was 101% and the residual activity (MAPK14 (human); compound 1.0 µM) was 93%. It also gave a residual activity (MAPK14 (human); compound 10.0 µM) of 85%, a residual activity (MAPK15 (human); compound 1.0 µM) of 77% and a residual activity (MAPK15 (human); compound 10.0 µM) of 26%. The residual activity (MAPKAPK5 (human); compound 1.0 µM) was 97%, the residual activity (MAPKAPK5 (human); compound 10.0 µM) was 79% and the residual activity (MELK (human); compound 1.0 µM) was 97%. For the same compound, the residual activity (MELK (human); compound 10.0 µM) was 66%, the residual activity (PRKCZ (human); compound 1.0 µM) was 98% and the residual activity (PRKCZ (human); compound 10.0 µM) was 86%. The residual activity (ROCK2 (rat); compound 1.0 µM) was 82%, the residual activity (ROCK2 (rat); compound 10.0 µM) was 81% and the residual activity (RPS6KA3 KD1 KD2 (human); compound 1.0 µM) was 80%. The residual activity (RPS6KA3 KD1 KD2 (human); compound 10.0 µM) was 52%, the residual activity (SRC (human); compound 1.0 µM) was 89% and the residual activity (SRC (human); compound 10.0 µM) was 34%.
